Test results published in patent US7138361B2, “Herbicidal heterocycles” (E. I. du Pont de Nemours and Company, priority 2000, dated 2006).

Key:
Format in all cases: in vivo
[1] = system: barnyardgrass (Echinochloa crus-galli); experiment: Test B flooded paddy test; settings: Rate 1000 g/ha, scale of 0 to 100 where 0 is no effect and 100 is complete control, visually evaluated after 13 to 15 days
In short: (§1)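 Treatment: formulated chemical applied to flooded paddy plants at 2-leaf stage. Hold: greenhouse, 13–15 days. Scoring: visual comparison to controls, 0 (no effect) to 100 (complete control).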

[2] = system: duck salad (Heteranthera limosa); experiment: Test B flooded paddy test; settings: Rate 1000 g/ha, scale of 0 to 100 where 0 is no effect and 100 is complete control, visually evaluated after 13 to 15 days
In short: as §1

rice (Oryza saliva) [3] = experiment: Test B flooded paddy test; settings: Rate 1000 g/ha, scale of 0 to 100 where 0 is no effect and 100 is complete control, visually evaluated after 13 to 15 days
In short: as §1

[4] = system: smallflower flatsedge (Cyperus difformis); experiment: Test B flooded paddy test; settings: Rate 1000 g/ha, scale of 0 to 100 where 0 is no effect and 100 is complete control, visually evaluated after 13 to 15 days
In short: as §1

[5] = system: barnyardgrass (Echinochloa crus-galli); experiment: Test C flooded paddy test; settings: for Barnyardgrass plant response rating: Flooded Paddy, scale 0 to 100, 0 no effect, 100 complete control; for Plant response rating, Barnyardgrass / Plant response rating (scale 0 to 100), Barnyardgrass: flooded paddy test; for Plant response rating, Barnyardgrass: scale 0 to 100 (0 no effect, 100 complete control)
In short: (§2)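 2-leaf-stage plants, flooded paddy; treated; greenhouse 12–14 days; compared with controls by eye; rated 0–100 (0 none, 100 complete control).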

[6] = system: duck salad (Heteranthera limosa); experiment: Test C flooded paddy test; settings: for Ducksalad plant response rating: Flooded Paddy, scale 0 to 100, 0 no effect, 100 complete control; for Plant response rating, Ducksalad / Plant response rating (scale 0 to 100), Ducksalad: flooded paddy test; for Plant response rating, Ducksalad: scale 0 to 100 (0 no effect, 100 complete control)
In short: as §2

rice (Oryza saliva) [7] = experiment: Test C flooded paddy test; settings: for Rice plant response rating: Flooded Paddy, scale 0 to 100, 0 no effect, 100 complete control; for Plant response rating, Rice / Plant response rating (scale 0 to 100), Rice: flooded paddy test; for Plant response rating, Rice: scale 0 to 100 (0 no effect, 100 complete control)
In short: as §2

[8] = system: smallflower flatsedge (Cyperus difformis); experiment: Test C flooded paddy test; settings: for Flatsedge plant response rating: Flooded Paddy, scale 0 to 100, 0 no effect, 100 complete control; for Plant response rating, Flatsedge / Plant response rating (scale 0 to 100), Flatsedge: flooded paddy test; for Plant response rating, Flatsedge: scale 0 to 100 (0 no effect, 100 complete control)
In short: as §2

[9] = system: cocklebur (Xanthium strumarium); experiment: Test C postemergence
In short: (§3)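 Visual injury scores of 0–100, with 100 meaning complete control, were given relative to controls after 12–14 days in the greenhouse. Treatments used a surfactant-containing non-phytotoxic solvent formulation, sprayed on seeded pots preemergence or on 1–4-leaf plants of 2–18 cm postemergence.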

corn (Zea mays) = experiment: Test C postemergence
In short: as §3

[10] = system: crabgrass (Digitaria sanguinalis); experiment: Test C postemergence
In short: as §3

Nightshade = experiment: Test C preemergence; settings: visual evaluation after 12 to 14 days
Sunflower [11] = experiment: Test C preemergence; settings: scale 0 to 100, 0 no effect, 100 complete control
Sunflower [12] = experiment: Test C preemergence; settings: scale 0 to 100
[13] = Rate 16 g/ha, visually evaluated after 12 to 14 days, 0 = no effect, 100 = complete control
[14] = under head Rate 16 g/ha, (own rate not given), after 12 to 14 days
[15] = Rate 250 g/ha, scale 0 to 100 (0 no effect, 100 complete control)
[16] = Rate 500 g/ha, scale 0 to 100 (0 no effect, 100 complete control)
[17] = Rate 125 g/ha, scale 0 to 100, 0 no effect, 100 complete control

COc1cc(N2CCC(n3ccc(C(C)(C)C)n3)C2=O)ccc1C (stereo not drawn) [Compound 42]
Plant response rating, Barnyardgrass [1]: 100
Plant response rating, Ducksalad [2]: 100
Plant response rating, Rice (rice (Oryza saliva) [3]): 100
Plant response rating, Flatsedge [4]: 100
Barnyardgrass plant response rating ([5]; Rate 250 g/ha): 100
Barnyardgrass plant response rating ([5]; Rate 500 g/ha): 100
Plant response rating, Barnyardgrass ([5]; Rate 62 g/ha): 100
Plant response rating, Barnyardgrass ([5]; Rate 125 g/ha): 100
Plant response rating (scale 0 to 100), Barnyardgrass [5, 13]: 70
Plant response rating (scale 0 to 100), Barnyardgrass [5, 14]: 50
Ducksalad plant response rating ([6]; Rate 250 g/ha): 100
Ducksalad plant response rating ([6]; Rate 500 g/ha): 100
Plant response rating, Ducksalad ([6]; Rate 62 g/ha): 100
Plant response rating, Ducksalad ([6]; Rate 125 g/ha): 100
Plant response rating (scale 0 to 100), Ducksalad [6, 13]: 90
Plant response rating (scale 0 to 100), Ducksalad [6, 14]: 80
Rice plant response rating (rice (Oryza saliva) [7]; Rate 250 g/ha): 70
Rice plant response rating (rice (Oryza saliva) [7]; Rate 500 g/ha): 80
Plant response rating, Rice (rice (Oryza saliva) [7]; Rate 62 g/ha): 20
Plant response rating, Rice (rice (Oryza saliva) [7]; Rate 125 g/ha): 40
Plant response rating (scale 0 to 100), Rice (rice (Oryza saliva) [7]; [13]): 0
Plant response rating (scale 0 to 100), Rice (rice (Oryza saliva) [7]; [14]): 0
Flatsedge plant response rating ([8]; Rate 250 g/ha): 100
Flatsedge plant response rating ([8]; Rate 500 g/ha): 100
Plant response rating, Flatsedge ([8]; Rate 62 g/ha): 100
Plant response rating, Flatsedge ([8]; Rate 125 g/ha): 100
Plant response rating (scale 0 to 100), Flatsedge [8, 13]: 100
Plant response rating (scale 0 to 100), Flatsedge [8, 14]: 100

CCCC(C)c1ccn(C2CCN(c3ccc(Cl)c(OC)c3)C2=O)n1 (stereo not drawn) [Compound 121]
Plant response rating, Cocklebur ([9]; Rate 62 g/ha, scale 0 to 100): 0
Plant response rating, Cocklebur [9, 15]: 20
Plant response rating, Cocklebur [9, 16]: 40
Plant response rating, Corn (corn (Zea mays); Rate 62 g/ha, scale 0 to 100): 0
Plant response rating, Corn (corn (Zea mays); [15]): 0
Plant response rating, Corn (corn (Zea mays); [16]): 40
Plant response rating, Corn (corn (Zea mays); scale 0 to 100): 0
Plant response rating, Crabgrass ([10]; Rate 62 g/ha, scale 0 to 100): 0
Plant response rating, Crabgrass [10, 15]: 40
Plant response rating, Crabgrass [10, 16]: 60
Barnyardgrass plant response rating ([5]; Rate 250 g/ha): 20
Barnyardgrass plant response rating ([5]; Rate 500 g/ha): 80
Plant response rating, Barnyardgrass ([5]; Rate 62 g/ha): 0
Plant response rating, Barnyardgrass ([5]; Rate 125 g/ha): 20
Ducksalad plant response rating ([6]; Rate 250 g/ha): 60
Ducksalad plant response rating ([6]; Rate 500 g/ha): 90
Plant response rating, Ducksalad ([6]; Rate 62 g/ha): 0
Plant response rating, Ducksalad ([6]; Rate 125 g/ha): 0
Rice plant response rating (rice (Oryza saliva) [7]; Rate 250 g/ha): 0
Rice plant response rating (rice (Oryza saliva) [7]; Rate 500 g/ha): 0
Plant response rating, Rice (rice (Oryza saliva) [7]; Rate 125 g/ha): 0
Flatsedge plant response rating ([8]; Rate 250 g/ha): 100
Flatsedge plant response rating ([8]; Rate 500 g/ha): 100
Plant response rating, Flatsedge ([8]; Rate 62 g/ha): 100
Plant response rating, Flatsedge ([8]; Rate 125 g/ha): 100
Plant response rating (0 to 100), Nightshade (Nightshade; Rate 500 g/ha): 100
Plant response rating, Sunflower (Sunflower [11]; Rate 250 g/ha): 50
Plant response rating, Sunflower (Sunflower [12]; Rate 62 g/ha): 10

CCC(C)c1ccn(C2OCN(c3cccc(C(F)(F)F)c3)C2=O)n1 (stereo not drawn) [Compound 24]
Plant response rating, Barnyardgrass [1]: 100
Plant response rating, Ducksalad [2]: 100
Plant response rating, Rice (rice (Oryza saliva) [3]): 90
Plant response rating, Flatsedge [4]: 100
Barnyardgrass plant response rating ([5]; Rate 250 g/ha): 100
Barnyardgrass plant response rating ([5]; Rate 500 g/ha): 100
Plant response rating, Barnyardgrass ([5]; Rate 62 g/ha): 100
Plant response rating, Barnyardgrass ([5]; Rate 125 g/ha): 100
Plant response rating (scale 0 to 100), Barnyardgrass [5, 13]: 100
Plant response rating (scale 0 to 100), Barnyardgrass [5, 14]: 80
Ducksalad plant response rating ([6]; Rate 250 g/ha): 100
Ducksalad plant response rating ([6]; Rate 500 g/ha): 100
Plant response rating, Ducksalad ([6]; Rate 62 g/ha): 60
Plant response rating, Ducksalad ([6]; Rate 125 g/ha): 100
Plant response rating (scale 0 to 100), Ducksalad [6, 13]: 50
Plant response rating (scale 0 to 100), Ducksalad [6, 14]: 50
Rice plant response rating (rice (Oryza saliva) [7]; Rate 250 g/ha): 30
Rice plant response rating (rice (Oryza saliva) [7]; Rate 500 g/ha): 60
Plant response rating, Rice (rice (Oryza saliva) [7]; Rate 62 g/ha): 0
Plant response rating, Rice (rice (Oryza saliva) [7]; Rate 125 g/ha): 20
Plant response rating (scale 0 to 100), Rice (rice (Oryza saliva) [7]; [13]): 20
Plant response rating (scale 0 to 100), Rice (rice (Oryza saliva) [7]; [14]): 20
Flatsedge plant response rating ([8]; Rate 250 g/ha): 100
Flatsedge plant response rating ([8]; Rate 500 g/ha): 100
Plant response rating, Flatsedge ([8]; Rate 62 g/ha): 100
Plant response rating, Flatsedge ([8]; Rate 125 g/ha): 100
Plant response rating (scale 0 to 100), Flatsedge [8, 13]: 100
Plant response rating (scale 0 to 100), Flatsedge [8, 14]: 100

O=C1C(n2ccc(C3CCC3)n2)SCN1c1cccc(C(F)(F)F)c1 (stereo not drawn) [Compound 37]
Plant response rating, Cocklebur ([9]; Rate 31 g/ha, scale 0 to 100): 0
Plant response rating, Cocklebur [9, 17]: 0
Plant response rating, Cocklebur [9, 15]: 0
Plant response rating, Corn (corn (Zea mays); Rate 31 g/ha, scale 0 to 100): 0
Plant response rating, Corn (corn (Zea mays); [17]): 0
Plant response rating, Corn (corn (Zea mays); [15]): 0
Plant response rating, Crabgrass ([10]; Rate 31 g/ha, scale 0 to 100): 0
Plant response rating, Crabgrass [10, 17]: 0
Plant response rating, Crabgrass [10, 15]: 0
Barnyardgrass plant response rating ([5]; Rate 250 g/ha): 100
Barnyardgrass plant response rating ([5]; Rate 500 g/ha): 100
Plant response rating, Barnyardgrass ([5]; Rate 62 g/ha): 70
Plant response rating, Barnyardgrass ([5]; Rate 125 g/ha): 100
Ducksalad plant response rating ([6]; Rate 250 g/ha): 90
Ducksalad plant response rating ([6]; Rate 500 g/ha): 100
Plant response rating, Ducksalad ([6]; Rate 62 g/ha): 20
Plant response rating, Ducksalad ([6]; Rate 125 g/ha): 80
Rice plant response rating (rice (Oryza saliva) [7]; Rate 250 g/ha): 30
Rice plant response rating (rice (Oryza saliva) [7]; Rate 500 g/ha): 90
Plant response rating, Rice (rice (Oryza saliva) [7]; Rate 62 g/ha): 0
Plant response rating, Rice (rice (Oryza saliva) [7]; Rate 125 g/ha): 0
Flatsedge plant response rating ([8]; Rate 250 g/ha): 100
Flatsedge plant response rating ([8]; Rate 500 g/ha): 100
Plant response rating, Flatsedge ([8]; Rate 62 g/ha): 100
Plant response rating, Flatsedge ([8]; Rate 125 g/ha): 100
Plant response rating (0 to 100), Nightshade (Nightshade; Rate 250 g/ha): 0
Plant response rating, Sunflower (Sunflower [11]; Rate 125 g/ha): 0
Plant response rating, Sunflower (Sunflower [12]; Rate 31 g/ha): 0

Cc1ccc(N2CCC(n3ccc(C(C)(C)C)n3)C2=O)cc1I (stereo not drawn) [Compound 122]
Plant response rating, Cocklebur ([9]; Rate 62 g/ha, scale 0 to 100): 20
Plant response rating, Cocklebur [9, 15]: 40
Plant response rating, Cocklebur [9, 16]: 70
Plant response rating, Corn (corn (Zea mays); Rate 62 g/ha, scale 0 to 100): 0
Plant response rating, Corn (corn (Zea mays); [15]): 0
Plant response rating, Corn (corn (Zea mays); [16]): 0
Plant response rating, Corn (corn (Zea mays); scale 0 to 100): 0
Plant response rating, Crabgrass ([10]; Rate 62 g/ha, scale 0 to 100): 0
Plant response rating, Crabgrass [10, 15]: 0
Plant response rating, Crabgrass [10, 16]: 0
Barnyardgrass plant response rating ([5]; Rate 250 g/ha): 0
Barnyardgrass plant response rating ([5]; Rate 500 g/ha): 100
Plant response rating, Barnyardgrass ([5]; Rate 62 g/ha): 0
Plant response rating, Barnyardgrass ([5]; Rate 125 g/ha): 0
Ducksalad plant response rating ([6]; Rate 250 g/ha): 30
Ducksalad plant response rating ([6]; Rate 500 g/ha): 60
Plant response rating, Ducksalad ([6]; Rate 62 g/ha): 20
Plant response rating, Ducksalad ([6]; Rate 125 g/ha): 20
Rice plant response rating (rice (Oryza saliva) [7]; Rate 250 g/ha): 0
Rice plant response rating (rice (Oryza saliva) [7]; Rate 500 g/ha): 0
Plant response rating, Rice (rice (Oryza saliva) [7]; Rate 62 g/ha): 0
Plant response rating, Rice (rice (Oryza saliva) [7]; Rate 125 g/ha): 0
Flatsedge plant response rating ([8]; Rate 250 g/ha): 80
Flatsedge plant response rating ([8]; Rate 500 g/ha): 100
Plant response rating, Flatsedge ([8]; Rate 62 g/ha): 0
Plant response rating, Flatsedge ([8]; Rate 125 g/ha): 80
Plant response rating (0 to 100), Nightshade (Nightshade; Rate 500 g/ha): 90
Plant response rating, Sunflower (Sunflower [11]; Rate 250 g/ha): 0
Plant response rating, Sunflower (Sunflower [12]; Rate 62 g/ha): 0
